Patent US20210214560A1, “COMPOUND, COLORING COMPOSITION, INK, TONER, COLORING RESIN COMPOSITION, AND COMPOSITION FOR DYEING FIBER” (FUJIFILM Corporation, priority 2018, published 2021)
One block for each compound: values may come before it.

Assays:
Format in all cases: physicochemical
[1] = Evaluation of maximum absorption wavelength (absorption spectrum in tetrahydrofuran solution); details: 1×10^−6 mol/L
[2] = Evaluation of heat stability (heat resistance), powder heated at 180° C. for 5 minutes; details: oven 180° C. for 5 minutes, A/A0×100, absorbance in tetrahydrofuran
Protocol: (§1) Heat stability of each compound was evaluated by the following procedure. 10 mg of the powder of each compound was dissolved in 500 mL of tetrahydrofuran, and the absorption spectrum was measured to obtain a reference absorbance (A0). On the other hand, 10 mg of the powder of each compound was weighed in a 4 cm square aluminum cup, placed in an oven, and heated at 180° C. for 5 minutes. The entire amount of the powder after heating was dissolved in 500 mL of tetrahydrofuran, and the absorption spectrum was measured to obtain an absorbance (A) after the heating test. The residual rate of each compound was calculated by the following expression to evaluate heat stability.
Residual rate of compound (%)=A/A0×100

[3] = Evaluation 2 of heat stability, powder heated at 200° C. for 5 minutes; details: oven 200° C. for 5 minutes, A2/A0×100, absorbance in tetrahydrofuran
Protocol: as §1, with “200°” for “180°”, “(A2)” for “(A)”
Residual rate of compound (%)=A2/A0×100

[4] = optical path length 10 mm (Table 7)
[5] = optical path length 10 mm (Table 9)

SMILES: CC(=O)c1ccccc1N=Nc1ccc(N=Nc2ccc3cccc4c3c2NC(C)(C)N4)c2ccccc12 [(3-6)]
Absorption maximum wavelength [1, 5]: 615 nm | Molar light absorption coefficient [1, 5]: 36100 L/mol/cm | Residual rate of compound [3]: 96%

SMILES: CC1(Cc2ccccc2)Nc2cccc3c(N=Nc4ccc(N=Nc5ccccc5Cl)c5ccccc45)ccc(c23)N1 (centres unmarked) [(1-64)]
Absorption maximum wavelength [1, 4]: 631 nm | Molar light absorption coefficient [1, 4]: 36,800 L · mol^−1 · cm^−1 | Residual rate of compound [2]: 73%

SMILES: CCCCCC1(C)Nc2cccc3c(N=Nc4ccc(N=Nc5ccccc5C(C)=O)c5ccccc45)ccc(c23)N1 (centres unmarked) [(1-50)]
Absorption maximum wavelength [1, 4]: 629 nm | Molar light absorption coefficient [1, 4]: 34,900 L · mol^−1 · cm^−1 | Residual rate of compound [2]: 98%

SMILES: CC1(C)Nc2cccc3c(N=Nc4ccc(N=Nc5ccc(F)cc5)c5ccccc45)ccc(c23)N1 [Comparative compound B, reference compound]
Residual rate of compound [2]: 64%

SMILES: CC1(C)Nc2cccc3ccc(N=Nc4ccc(N=Nc5ccccc5[N+](=O)[O-])c5ccccc45)c(c23)N1 [(3-5)]
Absorption maximum wavelength [1, 5]: 627 nm | Molar light absorption coefficient [1, 5]: 32100 L/mol/cm | Residual rate of compound [3]: 95%

SMILES: CC1(C)Nc2cccc3c(N=Nc4ccc(N=Nc5ccccc5C#N)c5ccccc45)ccc(c23)N1 [(1-38)]
Absorption maximum wavelength [1, 4]: 648 nm | Molar light absorption coefficient [1, 4]: 28,900 L · mol^−1 · cm^−1 | Residual rate of compound [2]: 92%

SMILES: CC(C)(C)C1(C)Nc2cccc3c(N=Nc4ccc(N=Nc5ccccc5Cl)c5ccccc45)ccc(c23)N1 (centres unmarked) [(1-8)]
Absorption maximum wavelength [1, 4]: 631 nm | Molar light absorption coefficient [1, 4]: 35,200 L · mol^−1 · cm^−1 | Residual rate of compound [2]: 81%

SMILES: CCCCC(CC)C(=O)OCC1(C)Nc2cccc3c(N=Nc4ccc(N=Nc5ccccc5Cl)c5ccccc45)ccc(c23)N1 (centres unmarked) [(1-20)]
Absorption maximum wavelength [1, 4]: 623 nm | Molar light absorption coefficient [1, 4]: 33,800 L · mol^−1 · cm^−1 | Residual rate of compound [2]: 84%

SMILES: CC1CCCCC12Nc1cccc3c(N=Nc4ccc(N=Nc5ccccc5Cl)c5ccccc45)ccc(c13)N2 (centres unmarked) [(1-27)]
Absorption maximum wavelength [1, 4]: 629 nm | Molar light absorption coefficient [1, 4]: 34,800 L · mol^−1 · cm^−1 | Residual rate of compound [2]: 81%

SMILES: CCCCC1(C)Nc2cccc3c(N=Nc4ccc(N=Nc5ccccc5Cl)c5ccccc45)ccc(c23)N1 (centres unmarked) [(1-5)]
Absorption maximum wavelength [1, 4]: 629 nm | Molar light absorption coefficient [1, 4]: 35,100 L · mol^−1 · cm^−1 | Residual rate of compound [2]: 81%

SMILES: COC(=O)c1ccccc1N=Nc1ccc(N=Nc2ccc3cccc4c3c2NC(C)(C)N4)c2ccccc12 [(3-3)]
Absorption maximum wavelength [1, 5]: 586 nm | Molar light absorption coefficient [1, 5]: 29200 L/mol/cm | Residual rate of compound [3]: 86%

SMILES: CC1(C)Nc2cccc3c(N=Nc4ccc(N=Nc5ccccc5Cl)c5ccccc45)ccc(c23)N1 [(1-1)]
Absorption maximum wavelength [1, 4]: 624 nm | Molar light absorption coefficient [1, 4]: 34,500 L · mol^−1 · cm^−1 | Residual rate of compound [2]: 85%

SMILES: CC1(C)Nc2cccc3c(N=Nc4ccc(N=Nc5cccc(F)c5)c5ccccc45)ccc(c23)N1 [Comparative compound A, reference compound]
Residual rate of compound [2]: 63%

SMILES: COC(=O)c1ccccc1N=Nc1ccc(N=Nc2ccc3c4c(cccc24)NC(C)(C)N3)c2ccccc12 [(1-40)]
Absorption maximum wavelength [1, 4]: 599 nm | Molar light absorption coefficient [1, 4]: 26,600 L · mol^−1 · cm^−1 | Residual rate of compound [2]: 80%

SMILES: CC(C)C1(C)Nc2cccc3c(N=Nc4ccc(N=Nc5ccccc5Cl)c5ccccc45)ccc(c23)N1 (centres unmarked) [(1-4)]
Absorption maximum wavelength [1, 4]: 631 nm | Molar light absorption coefficient [1, 4]: 33,000 L · mol^−1 · cm^−1 | Residual rate of compound [2]: 84%

SMILES: CC1(C)Nc2cccc3ccc(N=Nc4ccc(N=Nc5ccccc5Cl)c5ccccc45)c(c23)N1 [(3-1)]
Absorption maximum wavelength [1, 5]: 612 nm | Molar light absorption coefficient [1, 5]: 36300 L/mol/cm | Residual rate of compound [3]: 83%

SMILES: CC(C)C1(C)Nc2cccc3ccc(N=Nc4ccc(N=Nc5ccccc5Cl)c5ccccc45)c(c23)N1 (centres unmarked) [(3-9)]
Absorption maximum wavelength [1, 5]: 614 nm | Molar light absorption coefficient [1, 5]: 35500 L/mol/cm | Residual rate of compound [3]: 85%

SMILES: CC1(C)Nc2cccc3ccc(N=Nc4ccc(N=Nc5ccccc5)c5ccccc45)c(c23)N1 [Comparative compound D, reference compound]
Absorption maximum wavelength [1, 5]: 599 nm | Molar light absorption coefficient [1, 5]: 34200 L/mol/cm | Residual rate of compound [3]: 65%

Continued, values first:

Absorption maximum wavelength [1, 4]: 627 nm | Molar light absorption coefficient [1, 4]: 34,000 L · mol^−1 · cm^−1 | Residual rate of compound [2]: 84%
SMILES: CCC1(C)Nc2cccc3c(N=Nc4ccc(N=Nc5ccccc5Cl)c5ccccc45)ccc(c23)N1 (centres unmarked) [(1-2)]

Absorption maximum wavelength [1, 5]: 615 nm | Molar light absorption coefficient [1, 5]: 34800 L/mol/cm | Residual rate of compound [3]: 88%
SMILES: CCCCCC1(C)Nc2cccc3ccc(N=Nc4ccc(N=Nc5ccccc5Cl)c5ccccc45)c(c23)N1 (centres unmarked) [(3-10)]

Absorption maximum wavelength [1, 5]: 616 nm | Molar light absorption coefficient [1, 5]: 35800 L/mol/cm | Residual rate of compound [3]: 87%
SMILES: CCCCC1(C)Nc2cccc3ccc(N=Nc4ccc(N=Nc5ccccc5Cl)c5ccccc45)c(c23)N1 (centres unmarked) [(3-8)]

Absorption maximum wavelength [1, 4]: 619 nm | Molar light absorption coefficient [1, 4]: 35,000 L · mol^−1 · cm^−1 | Residual rate of compound [2]: 90%
SMILES: CC1(C)Nc2cccc3c(N=Nc4ccc(N=Nc5ccccc5F)c5ccccc45)ccc(c23)N1 [(1-31)]

Absorption maximum wavelength [1, 5]: 607 nm | Molar light absorption coefficient [1, 5]: 32000 L/mol/cm | Residual rate of compound [3]: 59%
SMILES: CC1(C)Nc2cccc3c(N=Nc4ccc(N=Nc5ccccc5)c5ccccc45)ccc(c23)N1 [Comparative compound C, reference compound]

Absorption maximum wavelength [1, 4]: 629 nm | Molar light absorption coefficient [1, 4]: 34,400 L · mol^−1 · cm^−1 | Residual rate of compound [2]: 82%
SMILES: CCCC1(C)Nc2cccc3c(N=Nc4ccc(N=Nc5ccccc5Cl)c5ccccc45)ccc(c23)N1 (centres unmarked) [Compound (1-3)]

Absorption maximum wavelength [1, 5]: 617 nm | Molar light absorption coefficient [1, 5]: 36200 L/mol/cm | Residual rate of compound [3]: 85%
SMILES: CCCC1(C)Nc2cccc3ccc(N=Nc4ccc(N=Nc5ccccc5Cl)c5ccccc45)c(c23)N1 (centres unmarked) [Compound (3-7)]

Absorption maximum wavelength [1, 4]: 622 nm | Molar light absorption coefficient [1, 4]: 33,100 L · mol^−1 · cm^−1 | Residual rate of compound [2]: 89%
SMILES: CC1(CO)Nc2cccc3c(N=Nc4ccc(N=Nc5ccccc5Cl)c5ccccc45)ccc(c23)N1 (centres unmarked) [(1-17)]

Absorption maximum wavelength [1, 4]: 639 nm | Molar light absorption coefficient [1, 4]: 35,700 L · mol^−1 · cm^−1 | Residual rate of compound [2]: 82%
SMILES: CC1(C)Nc2cccc3c(N=Nc4ccc(N=Nc5ccccc5C(=O)c5ccccc5)c5ccccc45)ccc(c23)N1 [(1-59)]

Absorption maximum wavelength [1, 5]: 638 nm | Molar light absorption coefficient [1, 5]: 30500 L/mol/cm | Residual rate of compound [3]: 88%
SMILES: CC1(C)Nc2cccc3ccc(N=Nc4ccc(N=Nc5ccccc5C#N)c5ccccc45)c(c23)N1 [(3-4)]

Absorption maximum wavelength [1, 4]: 629 nm | Molar light absorption coefficient [1, 4]: 35,900 L · mol^−1 · cm^−1 | Residual rate of compound [2]: 84%
SMILES: CCCCCC1(C)Nc2cccc3c(N=Nc4ccc(N=Nc5ccccc5Cl)c5ccccc45)ccc(c23)N1 (centres unmarked) [(1-9)]

Absorption maximum wavelength [1, 4]: 623 nm | Molar light absorption coefficient [1, 4]: 33,900 L · mol^−1 · cm^−1 | Residual rate of compound [2]: 84%
SMILES: CC(C)NC(=O)OCC1(C)Nc2cccc3c(N=Nc4ccc(N=Nc5ccccc5Cl)c5ccccc45)ccc(c23)N1 (centres unmarked) [(1-21)]

Absorption maximum wavelength [1, 4]: 607 nm | Molar light absorption coefficient [1, 4]: 34,200 L · mol^−1 · cm^−1 | Residual rate of compound [2]: 74%
SMILES: CC1(CC(N)=O)Nc2cccc3c(N=Nc4ccc(N=Nc5ccccc5Cl)c5ccccc45)ccc(c23)N1 (centres unmarked) [(1-62)]

Absorption maximum wavelength [1, 4]: 621 nm | Molar light absorption coefficient [1, 4]: 32,800 L · mol^−1 · cm^−1 | Residual rate of compound [2]: 74%
SMILES: CC1(C)Nc2cccc3c(N=Nc4ccc(N=Nc5ccccc5Br)c5ccccc45)ccc(c23)N1 [(1-34)]

Absorption maximum wavelength [1, 5]: 608 nm | Molar light absorption coefficient [1, 5]: 36000 L/mol/cm | Residual rate of compound [3]: 85%
SMILES: CC1(C)Nc2cccc3ccc(N=Nc4ccc(N=Nc5ccccc5F)c5ccccc45)c(c23)N1 [(3-2)]

Absorption maximum wavelength [1, 4]: 604 nm | Molar light absorption coefficient [1, 4]: 34,100 L · mol^−1 · cm^−1 | Residual rate of compound [2]: 77%
SMILES: CC1(CC#N)Nc2cccc3c(N=Nc4ccc(N=Nc5ccccc5Cl)c5ccccc45)ccc(c23)N1 (centres unmarked) [(1-61)]
